Experimental data: ChEMBL document CHEMBL3616371, “Synthesis of BF₃ catalyzed Mannich derivatives with excellent ee from phenylpropanolamine, study of their antimicrobial activity and molecular docking” (2015)
Values after ≈ are worked out from the molar mass of the structure shown.

Columns and labels:
[1] = test system: Staphylococcus aureus; assay: Antibacterial activity against methicillin-resistant Staphylococcus aureus after 24 hrs by two fold serial dilution method; type: functional
[2] = test system: Proteus vulgaris; assay: Antibacterial activity against Proteus vulgaris assessed as growth inhibition at 1 mg/well after 24 hrs by Well method; type: functional
[3] = test system: Klebsiella aerogenes; assay: Antibacterial activity against Enterobacter aerogenes after 24 hrs by two fold serial dilution method; type: functional
[4] = test system: Staphylococcus aureus; assay: Antibacterial activity against Staphylococcus aureus after 24 hrs by two fold serial dilution method; type: functional
[5] = test system: Bacillus subtilis; assay: Antibacterial activity against Bacillus subtilis after 24 hrs by two fold serial dilution method; type: functional
[6] = test system: Micrococcus luteus; assay: Antibacterial activity against Micrococcus luteus after 24 hrs by two fold serial dilution method; type: functional
[7] = test system: Shigella flexneri; assay: Antibacterial activity against Shigella flexneri after 24 hrs by two fold serial dilution method; type: functional
[8] = test system: Shigella flexneri; assay: Antibacterial activity against Shigella flexneri assessed as growth inhibition at 1 mg/well after 24 hrs by Well method; type: functional
[9] = test system: Klebsiella aerogenes; assay: Antibacterial activity against Enterobacter aerogenes assessed as growth inhibition at 1 mg/well after 24 hrs by Well method; type: functional
[10] = test system: Staphylococcus aureus; assay: Antibacterial activity against Staphylococcus aureus assessed as growth inhibition at 1 mg/well after 24 hrs by Well method; type: functional
[11] = test system: Proteus vulgaris; assay: Antibacterial activity against Proteus vulgaris after 24 hrs by two fold serial dilution method; type: functional
[12] = test system: Pseudomonas aeruginosa; assay: Antibacterial activity against Pseudomonas aeruginosa after 24 hrs by two fold serial dilution method; type: functional
[13] = test system: Salmonella typhimurium; assay: Antibacterial activity against Salmonella typhimurium assessed as growth inhibition at 1 mg/well after 24 hrs by Well method; type: functional, Salmonella enterica subsp. enterica serovar Typhimurium
[14] = test system: Micrococcus luteus; assay: Antibacterial activity against Micrococcus luteus assessed as growth inhibition at 1 mg/well after 24 hrs by Well method; type: functional
[15] = test system: Salmonella enterica subsp. enterica serovar Paratyphi B; assay: Antibacterial activity against Salmonella paratyphi B after 24 hrs by two fold serial dilution method; type: functional
[16] = test system: Staphylococcus aureus; assay: Antibacterial activity against methicillin-resistant Staphylococcus aureus assessed as growth inhibition at 1 mg/well after 24 hrs by Well method; type: functional
[17] = test system: Salmonella typhimurium; assay: Antibacterial activity against Salmonella typhimurium after 24 hrs by two fold serial dilution method; type: functional, Salmonella enterica subsp. enterica serovar Typhimurium; settings: Salmonella enterica
[18] = test system: Staphylococcus epidermidis; assay: Antibacterial activity against Staphylococcus epidermidis assessed as growth inhibition at 1 mg/well after 24 hrs by Well method; type: functional
[19] = test system: Staphylococcus epidermidis; assay: Antibacterial activity against Staphylococcus epidermidis after 24 hrs by two fold serial dilution method; type: functional
[20] = test system: Salmonella enterica subsp. enterica serovar Paratyphi B; assay: Antibacterial activity against Salmonella paratyphi B assessed as growth inhibition at 1 mg/well after 24 hrs by Well method; type: functional
[21] = test system: Bacillus subtilis; assay: Antibacterial activity against Bacillus subtilis assessed as growth inhibition at 1 mg/well after 24 hrs by Well method; type: functional
[22] = test system: Pseudomonas aeruginosa; assay: Antibacterial activity against Pseudomonas aeruginosa assessed as growth inhibition at 1 mg/well after 24 hrs by Well method; type: functional
[23] = test system: Malassezia pachydermatis; assay: Antifungal activity against Malassezia pachydermatis after 48 to 72 hrs by two fold serial dilution method; type: functional
[24] = test system: Candida albicans; assay: Antifungal activity against Candida albicans after 48 to 72 hrs by two fold serial dilution method; type: functional
[25] = test system: Malassezia pachydermatis; assay: Antifungal activity against Malassezia pachydermatis assessed as growth inhibition at 1 mg/well after 48 hrs by Well method; type: functional
[26] = test system: Candida albicans; assay: Antifungal activity against Candida albicans assessed as growth inhibition at 1 mg/well after 48 hrs by Well method; type: functional
[27] = test system: Aspergillus flavus; assay: Antifungal activity against Aspergillus flavus after 48 to 72 hrs by two fold serial dilution method; type: functional
[28] = test system: Klebsiella pneumoniae; assay: Antibacterial activity against Klebsiella pneumoniae assessed as growth inhibition at 1 mg/well after 24 hrs by Well method; type: functional
[29] = test system: Klebsiella pneumoniae; assay: Antibacterial activity against Klebsiella pneumoniae after 24 hrs by two fold serial dilution method; type: functional
[30] = test system: Aspergillus flavus; assay: Antifungal activity against Aspergillus flavus assessed as growth inhibition at 1 mg/well after 48 hrs by Well method; type: functional

Structure (SMILES)	MIC [1] [µg/mL]	inhibition zone (IZ) [2] [mm]	MIC [3] [µg/mL]	MIC [4] [µg/mL]	MIC [5] [µg/mL]	MIC [6] [µg/mL]	MIC [7] [µg/mL]	inhibition zone (IZ) [8] [mm]	inhibition zone (IZ) [9] [mm]	inhibition zone (IZ) [10] [mm]	MIC [11] [µg/mL]	MIC [12] [µg/mL]	inhibition zone (IZ) [13] [mm]	inhibition zone (IZ) [14] [mm]	MIC [15] [µg/mL]	inhibition zone (IZ) [16] [mm]	MIC [17] [µg/mL]	inhibition zone (IZ) [18] [mm]	inhibition zone (IZ) [21] [mm]	inhibition zone (IZ) [22] [mm]	other results
C[C@@H](NCCC(=O)c1ccc(Cl)cc1Cl)[C@@H](O)c1ccccc1.Cl	3.13	33	3.13	3.13	6.25	6.25	3.13	32	35	37	3.13	6.25	34	28	50	34	3.13	34	26	24	MIC [19]: 3.13 µg/mL; inhibition zone (IZ) [20]: 16 mm
C[C@H](NCCC(=O)c1cccc([N+](=O)[O-])c1)[C@H](O)c1ccccc1.Cl	50	18	50	50	50	50	50	16	16	15	50	50	17	19	> 50	15	50	19	15	16	MIC [23]: > 50 µg/mL; MIC [24]: > 50 µg/mL; inhibition zone (IZ) [25]: 13 mm; inhibition zone (IZ) [26]: 12 mm; MIC [19]: 50 µg/mL; inhibition zone (IZ) [20]: 12 mm
C[C@H](NCCC(=O)c1ccc(Cl)cc1)[C@H](O)c1ccccc1.Cl	25	25	50	50	25	50	25	22	25	26	25	25	24	28	> 50	29	50	28	19	20	MIC [27]: 50 µg/mL; inhibition zone (IZ) [25]: 12 mm; inhibition zone (IZ) [28]: 11 mm; MIC [29]: 50 µg/mL; MIC [19]: 25 µg/mL; inhibition zone (IZ) [30]: 15 mm
COc1ccc(C(=O)CCN[C@@H](C)[C@H](O)c2ccccc2)cc1.Cl	50	21	50	50	25	25	50	21	20	18	50	25	17	23	50	20	50	22	19	20	MIC [27]: > 50 µg/mL; inhibition zone (IZ) [28]: 12 mm; MIC [29]: > 50 µg/mL; MIC [19]: 25 µg/mL; inhibition zone (IZ) [20]: 20 mm; inhibition zone (IZ) [30]: 10 mm
CN[C@@H]1[C@H](O[C@H]2[C@H](O[C@H]3[C@H](O)[C@@H](O)[C@H](N=C(N)N)[C@@H](O)[C@@H]3N=C(N)N)O[C@@H](C)[C@]2(O)C=O)O[C@@H](CO)[C@H](O)[C@H]1O [STREPTOMYCIN]	6.25 (≈ 10.7 µM)	30	25 (≈ 43 µM)	6.25 (≈ 10.7 µM)	25 (≈ 43 µM)	6.25 (≈ 10.7 µM)	6.25 (≈ 10.7 µM)	30	22	14	6.25 (≈ 10.7 µM)	25 (≈ 43 µM)	24	26	30 (≈ 51.6 µM)	30	6.25 (≈ 10.7 µM)	–	22	30	inhibition zone (IZ) [28]: 20 mm; MIC [29]: 25 µg/mL (≈ 43 µM); inhibition zone (IZ) [20]: 18 mm
